# Assay results reported in ChEMBL document CHEMBL1135817, “New templates for syntheses of ring-fused, C(10) beta-turn peptidomimetics leading to the first reported small-molecule mimic of neurotrophin-3” (2002).
# Key:
# [1] = biological target: High affinity nerve growth factor receptor (Homo sapiens) (UniProt P04629); experiment: Binding affinity for TrkA receptor transfected NIH3T3 cells at 20 uM with 2 nM NGF; type: cell-based
# [2] = biological target: NT-3 growth factor receptor (Mus musculus) (UniProt Q6VNS1); experiment: Binding affinity for TrkC receptor transfected cells at 20 uM without NT-3
# NT-3 growth factor receptor (Mus musculus), sequence (Q6VNS1 whole entry): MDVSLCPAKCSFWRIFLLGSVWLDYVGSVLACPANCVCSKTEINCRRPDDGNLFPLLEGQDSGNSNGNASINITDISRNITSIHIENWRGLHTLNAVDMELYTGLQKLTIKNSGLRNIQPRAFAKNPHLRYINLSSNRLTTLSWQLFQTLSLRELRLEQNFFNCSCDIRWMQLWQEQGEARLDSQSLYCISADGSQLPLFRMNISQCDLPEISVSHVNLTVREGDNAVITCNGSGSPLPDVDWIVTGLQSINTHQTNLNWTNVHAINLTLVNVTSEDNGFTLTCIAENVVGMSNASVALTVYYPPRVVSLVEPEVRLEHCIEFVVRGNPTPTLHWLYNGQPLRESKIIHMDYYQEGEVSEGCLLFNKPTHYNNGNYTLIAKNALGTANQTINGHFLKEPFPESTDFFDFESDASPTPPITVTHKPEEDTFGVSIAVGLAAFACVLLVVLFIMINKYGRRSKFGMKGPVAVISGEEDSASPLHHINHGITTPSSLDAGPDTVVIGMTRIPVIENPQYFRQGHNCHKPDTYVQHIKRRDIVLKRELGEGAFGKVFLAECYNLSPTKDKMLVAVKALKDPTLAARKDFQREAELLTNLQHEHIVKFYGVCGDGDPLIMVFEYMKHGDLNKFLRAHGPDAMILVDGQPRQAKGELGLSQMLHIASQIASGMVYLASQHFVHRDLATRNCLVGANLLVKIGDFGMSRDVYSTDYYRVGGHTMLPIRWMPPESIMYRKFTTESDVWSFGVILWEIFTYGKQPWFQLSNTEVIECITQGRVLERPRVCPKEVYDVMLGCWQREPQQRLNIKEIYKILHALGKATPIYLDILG
# [3] = biological target: NT-3 growth factor receptor (Mus musculus) (UniProt Q6VNS1); experiment: Binding affinity for TrkC receptor transfected cells at 20 uM with 20 nM anti-TrkC-Ab
# [4] = biological target: High affinity nerve growth factor receptor (Homo sapiens) (UniProt P04629); experiment: Binding affinity for TrkA receptor transfected NIH3T3 cells at 20 uM without NGF; type: cell-based
# [5] = biological target: NT-3 growth factor receptor (Mus musculus) (UniProt Q6VNS1); experiment: Binding affinity for TrkC receptor transfected cells at 20 uM with 2 nM NT-3
# NIH3T3 [6] = experiment: Binding affinity for NIH3T3 cells at 20 uM (negative control); type: functional, Mus musculus
# [7] = biological target: NT-3 growth factor receptor (Mus musculus) (UniProt Q6VNS1); experiment: Survival of TrkC receptor transfected NIH3T3 cells at o.4 uM with 100 pM NT-3; type: functional, cell-based
# [8] = biological target: NT-3 growth factor receptor (Mus musculus) (UniProt Q6VNS1); experiment: Binding of FITCanti-TrkC-Ab to TrkC receptor transfected NIH3T3 cells (positive control); type: cell-based
# NIH3T3 [9] = experiment: Binding of irrelevant FITC-Ab to NIH3T3 cells (negative control); type: functional, Mus musculus
# [10] = biological target: NT-3 growth factor receptor (Mus musculus) (UniProt Q6VNS1); experiment: Survival of TrkC receptor transfected NIH3T3 cells at o.4 uM without NT-3; type: functional, cell-based
# [11] = biological target: NT-3 growth factor receptor (Mus musculus) (UniProt Q6VNS1); experiment: Survival of TrkC receptor transfected NIH3T3 cells without NT-3 (negative control); type: functional, cell-based
# [12] = biological target: NT-3 growth factor receptor (Mus musculus) (UniProt Q6VNS1); experiment: Survival of TrkC receptor transfected NIH3T3 cells at 2 uM with 100 pM NT-3; type: functional, cell-based
# [13] = biological target: High affinity nerve growth factor receptor (Homo sapiens) (UniProt P04629); experiment: Binding of FITCanti-TrkA-Ab to human TrkA receptor transfected NIH3T3 cells (positive control); type: cell-based
# [14] = biological target: NT-3 growth factor receptor (Mus musculus) (UniProt Q6VNS1); experiment: Survival of TrkC receptor transfected NIH3T3 cells at 10 uM with 100 pM NT-3; type: functional, cell-based
# [15] = biological target: NT-3 growth factor receptor (Mus musculus) (UniProt Q6VNS1); experiment: Survival of TrkC receptor transfected NIH3T3 cells at 2 uM without NT-3; type: functional, cell-based
# [16] = biological target: NT-3 growth factor receptor (Mus musculus) (UniProt Q6VNS1); experiment: Survival of TrkC receptor transfected NIH3T3 cells at 50 uM without NT-3; type: functional, cell-based
# [17] = biological target: NT-3 growth factor receptor (Mus musculus) (UniProt Q6VNS1); experiment: Survival of TrkC receptor transfected NIH3T3 cells with suboptimal NT-3 (100 pM); type: functional, cell-based
# [18] = biological target: NT-3 growth factor receptor (Mus musculus) (UniProt Q6VNS1); experiment: Survival of TrkC receptor transfected NIH3T3 cells at 10 uM without NT-3; type: functional, cell-based
# [19] = biological target: NT-3 growth factor receptor (Mus musculus) (UniProt Q6VNS1); experiment: Survival of TrkC receptor transfected NIH3T3 cells with 2000 pM NT-3 (positive control); type: functional, cell-based
# [20] = biological target: NT-3 growth factor receptor (Mus musculus) (UniProt Q6VNS1); experiment: Survival of TrkC receptor transfected NIH3T3 cells at 50 uM with 100 pM NT-3; type: functional, cell-based
# High affinity nerve growth factor receptor (Homo sapiens), sequence (P04629 33-796 limits assumed): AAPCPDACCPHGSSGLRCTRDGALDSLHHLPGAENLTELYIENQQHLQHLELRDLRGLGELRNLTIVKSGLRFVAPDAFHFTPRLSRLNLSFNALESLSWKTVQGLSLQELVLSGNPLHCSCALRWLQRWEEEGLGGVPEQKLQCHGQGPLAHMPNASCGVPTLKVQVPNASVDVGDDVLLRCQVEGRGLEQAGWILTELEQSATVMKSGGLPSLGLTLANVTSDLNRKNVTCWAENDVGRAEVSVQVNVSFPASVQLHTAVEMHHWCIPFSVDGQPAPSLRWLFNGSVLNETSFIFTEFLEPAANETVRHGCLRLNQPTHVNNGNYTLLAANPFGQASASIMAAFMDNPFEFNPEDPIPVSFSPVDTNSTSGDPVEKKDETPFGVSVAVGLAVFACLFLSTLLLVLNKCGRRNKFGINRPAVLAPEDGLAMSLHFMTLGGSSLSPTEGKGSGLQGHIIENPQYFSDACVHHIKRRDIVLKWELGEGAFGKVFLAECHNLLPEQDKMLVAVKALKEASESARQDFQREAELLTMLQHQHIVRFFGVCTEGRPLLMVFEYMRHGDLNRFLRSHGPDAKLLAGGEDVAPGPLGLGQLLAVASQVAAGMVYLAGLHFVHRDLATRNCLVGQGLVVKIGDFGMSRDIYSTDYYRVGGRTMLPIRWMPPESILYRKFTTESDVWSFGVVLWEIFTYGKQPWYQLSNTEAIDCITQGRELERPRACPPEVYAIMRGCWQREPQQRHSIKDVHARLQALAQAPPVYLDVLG
Compound,Max binding [1] [%],Max binding [2] [%],Max binding [3] [%],Max binding [4] [%],Max binding [5] [%],Max binding (NIH3T3 [6]) [%],Survival [7] [%],Max binding [8] [%],Max binding (NIH3T3 [9]) [%],Survival [10] [%],Survival [11] [%],Survival [12] [%],Max binding [13] [%],Survival [14] [%],Survival [15] [%],Survival [16] [%],Survival [17] [%],Survival [18] [%],Survival [19] [%],Survival [20] [%]
NCCCC[C@@H]1NC(=O)c2cc(NC(=O)CC/N=C(S)/N=C3/C=CC(=C4c5ccc(O)cc5Oc5cc(O)ccc54)C(C(=O)O)=C3)ccc2NCc2ccc(C(N)=O)cc2NC(=O)[C@H](CO)NC1=O,9,11,40,22,42,14,–,–,–,–,–,–,–,–,–,–,–,–,–,–
NCCCC[C@@H]1NC(=O)c2cc([N+](=O)[O-])ccc2NCc2ccc(C(N)=O)cc2NC(=O)[C@H](CO)NC1=O,–,–,–,–,–,–,32,22,14,0.2,0,33,71,38,0.1,0.2,26,0.4,100,36
